Tests used:
Type in all cases: in vivo
[1] = tested on: Anopheles gambiae (homocygus kdr); test: Anopheles test (ANPHGB surface treatment); settings: exposition 30 minutes; for activity (mortality in %): 100 mg/m^2, 24 hours after contact; for knock-down activity: 100 mg/m^2, two hours after contact
Description: Anopheles Test (ANPHGB Surface Treatment) Solvent: Acetone
To produce a suitable preparation of active compound, the active compound is dissolved in acetone (2 mg/ml). The active compound preparation is pipetted onto a glazed tile and, after drying, adult mosquitoes of the species Anopheles gambiae (homocygus kdr) are placed onto the treated tile. The exposition time is 30 minutes.
Two hours after contact to the treated surface, the knock-down proportion of the test animals in % is determined.
24 hours after contact to the treated surface, the mortality in % is determined. Here, 100% means that all mosquitoes have been killed; 0% means that none of the mosquitoes has been killed.

[2] = tested on: larvae of the mustard beetle (Phaedon cochleariae); test: Phaedon test (PHAECO spray treatment); settings: 500 g/ha, spray, after 7 days
Description: Phaedon Test ([…] Spray Treatment) Solvents: 78.0 parts by weight of acetone • • 1.5 parts by weight of dimethylformamide Emulsifier: 0.5 part by weight of alkylaryl polyglycol ether To produce a suitable preparation of active compound, 1 part by weight of active compound is mixed with the stated amounts of solvents and emulsifiers, and the concentrate is diluted with emulsifier-containing water to the desired concentration. Discs of Chinese cabbage leaves (Brassica pekinensis) are sprayed with an active compound preparation of the desired concentration and, after drying, populated with larvae of the mustard beetle (Phaedon cochleariae).

[3] = tested on: greenhouse red spider mite (Tetranychus urticae); test: Tetranychus test; OP-resistant (TETRUR spray treatment); settings: 500 g/ha, spray, after 6 days
Description: Tetranychus Test; OP-Resistant (TETRUR Spray Treatment) Solvents: 78.0 parts by weight of acetone • • 1.5 parts by weight of dimethylformamide Emulsifier: 0.5 part by weight of alkylaryl polyglycol ether
(§1) To produce a suitable preparation of active compound, 1 part by weight of active compound is mixed with the stated amounts of solvents and emulsifier, and the concentrate is diluted with emulsifier-containing water to the desired concentration.
Discs of bean leaves (Phaseolus vulgaris) infested by all stages of the greenhouse red spider mite (Tetranychus urticae) are sprayed with an active compound preparation of the desired concentration.
After 6 days, the activity in % is determined. 100% means that all spider mites have been killed; 0% means that none of the spider mites have been killed.

[4] = tested on: caterpillars of the army worm (Spodoptera frugiperda); test: Spodoptera frugiperda test (SPODFR spray treatment); settings: 500 g/ha, spray, after 7 days
Description: Spodoptera frugiperda Test (SPODFR Spray Treatment) Solvents: 78.0 parts by weight of acetone • • 1.5 parts by weight of dimethylformamide Emulsifier: 0.5 part by weight of alkylaryl polyglycol ether
as §1
Discs of maize leaves (Zea mays) are sprayed with an active compound preparation of the desired concentration and, after drying, populated with caterpillars of the army worm (Spodoptera frugiperda) besetzt.
After 7 days, the activity in % is determined. 100% means that all caterpillars have been killed; 0% means that none of the caterpillars have been killed.

[5] = tested on: green peach aphid (Myzus persicae); test: Myzus test (MYZUPE spray treatment); settings: 500 g/ha, spray, after 6 days
Description: Myzus Test (MYZUPE Spray Treatment) Solvents: 78 parts by weight of acetone • • 1.5 parts by weight of dimethylformamide Emulsifier: 0.5 part by weight of alkylaryl polyglycol ether
as §1
Discs of Chinese cabbage leaves (Brassica pekinensis) which are infested by all stages of the green peach aphid (Myzus persicae) are sprayed with an active compound preparation of the desired concentration.
After 6 days, the activity in % is determined. 100% means that all aphids have been killed; 0% means that none of the aphids have been killed.

[6] = tested on: cat fleas (Ctenocephalides felis, fully sensitive laboratory strain); test: Contact test against fleas in-vitro (CTECFE contact); settings: 500 g/ha, after 48 h
Description: Contact Test Against Fleas In-Vitro (CTECFE Contact)
An amount of 0.9 mg of active compound is weighed out, and 1 ml of acetone is added.
Of this acetone solution, either […] are transferred directly into roll-necked test tubes or an aliquot is diluted with 4 parts of acetone 1:5. For its part, 250 μl of this dilution are pipetted into roll-necked test tubes, or the dilution is diluted further, etc., until the desired number of dilution steps is reached.
The roll-necked test tubes containing the solution of the active compound in acetone are immediately coated in a fume cupboard by 2 h of swing rotation at 30 rpm. After evaporation of the solvent, the active compound contained in the acetone gives, at the highest concentration tested, an active compound content of 500 g/ha (or 500 μg/dm^2) on the surface of the test tube.
10-20 Adult cat fleas (Ctenocephalides felis, fully sensitive laboratory strain) anesthetized with CO2 are transferred into the test tubes prepared in this manner, and the test tubes are closed with a plastic roll-necked lid provided with fine holes.
The test tubes are stored vertically at room temperature and humidity for 24 or 48 h. After 24 and 48 h, the activity of the active compound applied is determined by comparison with an acetone-treated control. Here, an observed normal activity for all fleas corresponds to 0% activity, a strongly restricted or uncoordinated (knock-down) movement or death of all fleas corresponds to 100% activity.

COc1ccc(N=C2c3ccccc3CCC2C(Sc2ccccc2)Sc2ccccc2)cc1 (stereo not shown) [Example 2-3]
activity (mortality in %) [1]: 95%

Cc1ccc(N=C2c3ccc(F)cc3CCC2C(Sc2ccc(F)cc2)Sc2ccc(F)cc2)cc1 (stereo not shown) [Example 2-6]
activity (mortality in %) [1]: 95%

COc1ccc2c(c1C)OCC(=CSc1ccc(F)cc1)C2=Nc1ccc(C)cc1 [Example 1-52]
activity (mortality in %) [1]: 85%

Cc1cccc(N=C2C(=CSc3ccccc3)C(C)c3ccccc32)c1 (mixture of isomers) [Example 1-12]
activity (beetle larvae killed) [2]: 100% | activity (spider mites killed) [3]: 100% | activity (caterpillars killed) [4]: 100%

Cc1ccc(N=C2C(=CSc3ccc(F)cc3)CCc3cc(C)cc(C)c32)cc1 [Example 1-77]
activity (mortality in %) [1]: 80%

Cc1ccc(N=C2C=CC(C)(C)CC2=CSc2ccc(F)cc2)cc1C [Example 1-64]
knock-down activity [1]: 100% | activity (aphids killed) [5]: 80% | activity (spider mites killed) [3]: 80% | activity (caterpillars killed) [4]: 100%

Cc1ccc(N=C2C(=CSc3ccc(F)cc3)CCc3ccccc32)cc1C#N [Example 1-68]
activity (beetle larvae killed) [2]: 100% | activity (spider mites killed) [3]: 100% | activity (caterpillars killed) [4]: 100%

c1ccc(N=C2c3ccccc3C(c3ccccc3)C2C(Sc2ccccc2)Sc2ccccc2)cc1 (mixture of isomers) [Example 2-10]
activity (aphids killed) [5]: 100% | activity (spider mites killed) [3]: 100% | activity (caterpillars killed) [4]: 100%

Cc1ccc(N=C2C(=CSc3ccc(F)cc3)C(C)c3cc(Cl)ccc32)cc1 (mixture of isomers) [Example 1-50]
knock-down activity [1]: 85%

CC1=CC(C)(C)CC(=CSc2ccc(F)cc2)C1=Nc1ccc(C)cc1 [Example 1-93]
activity (spider mites killed) [3]: 90%

COc1cccc2c1CCC(=CSc1ccc(F)cc1)C2=Nc1ccc(C)cc1 [Example 1-31]
activity against cat fleas [6]: 100% | activity (spider mites killed) [3]: 100% | activity (caterpillars killed) [4]: 100%

Cc1ccc(N=C2C(=CSc3ccccc3)CCC/C2=C\Sc2ccccc2)cc1 [Example 1-60, N-{2,6-Bis[(phenylsulphanyl)methylene]cyclohexylidene}-4-methylaniline]
pest or weed control at 500 g/ha ([2]; Phaedon cochleariae, 168 h, read-out: activity (beetle larvae killed)): 100% | pest or weed control at 500 g/ha ([4]; Spodoptera frugiperda, 168 h, read-out: activity (caterpillars killed)): 100%

Cc1ccc(N=C2C(=CSc3cccc(F)c3)CCc3ccccc32)cc1 [Example 1-78]
activity (beetle larvae killed) [2]: 100% | activity (aphids killed) [5]: 100% | activity (spider mites killed) [3]: 100% | activity (caterpillars killed) [4]: 100%

Cc1ccc(N=C2c3cc(F)ccc3CCC2C(Sc2ccc(F)cc2)Sc2ccc(F)cc2)cc1 (stereo not shown) [Example 2-8]
activity (spider mites killed) [3]: 90% | activity (caterpillars killed) [4]: 100%

Cc1ccc(N=C2C(=CSc3ccc(F)cc3)COc3cc(C(C)(C)C)ccc32)cc1 [Example 1-75]
activity (caterpillars killed) [4]: 100%

Cc1ccc(N=C2C(=CSc3ccc(F)cc3)CCc3c(C)cc(C)cc32)cc1 [Example 1-30]
activity (spider mites killed) [3]: 80% | activity (caterpillars killed) [4]: 100%

COc1ccc2c(c1)C(=Nc1ccc(C)cc1)C(=CSc1ccc(F)cc1)CC2 [Example 1-32]
activity against cat fleas [6]: 100% | activity (spider mites killed) [3]: 100% | activity (caterpillars killed) [4]: 100%

Cc1ccc(N=C2C(=CSc3ccc(F)cc3)COc3cc(-c4ccccc4)ccc32)cc1 [Example 1-24]
activity (aphids killed) [5]: 90%

Cc1ccc(N=C2C(=CSc3ccc(F)cc3)CCc3cc(Cl)sc32)cc1 (mixture of isomers) [Example 1-91]
activity (beetle larvae killed) [2]: 100% | activity (aphids killed) [5]: 90% | activity (spider mites killed) [3]: 100% | activity (caterpillars killed) [4]: 100%

Cc1ccc(N=C2c3ccccc3C(c3ccccc3)C2C(Sc2ccccc2)Sc2ccccc2)cc1 (mixture of isomers) [Example 2-9]
activity (beetle larvae killed) [2]: 100% | activity (aphids killed) [5]: 100% | activity (spider mites killed) [3]: 100% | activity (caterpillars killed) [4]: 100%

COc1ccc(SC=C2CCc3ccccc3C2=Nc2ccc(C)cc2)cc1 [Example 1-73]
activity (spider mites killed) [3]: 80%

CCOC1=CC(=CSc2ccccc2)C(=Nc2ccc(C)cc2)CC1 (mixture of isomers) [Example 1-97]
activity (spider mites killed) [3]: 100%

Cc1ccc(N=C2C(=CSC3CCCC3)CCc3ccccc32)cc1 [Example 1-87]
activity (beetle larvae killed) [2]: 100% | knock-down activity [1]: 80% | activity (aphids killed) [5]: 100% | activity (spider mites killed) [3]: 100%

CC1C(=CSc2ccccc2)C(=Nc2ccccc2)c2ccccc21 (mixture of isomers) [Example 1-13]
activity (beetle larvae killed) [2]: 100% | activity (aphids killed) [5]: 100% | activity (spider mites killed) [3]: 100% | activity (caterpillars killed) [4]: 100%

Cc1cc(C)cc(N=C2C(=CSc3ccc(F)cc3)CCc3ccccc32)c1 [Example 1-67]
activity (beetle larvae killed) [2]: 100% | activity (aphids killed) [5]: 80% | activity (caterpillars killed) [4]: 100%

C(Sc1ccccc1)=C1C(=Nc2ccccc2)c2ccccc2C1c1ccccc1 (mixture of isomers) [Example 1-19]
activity (beetle larvae killed) [2]: 100% | activity (aphids killed) [5]: 100% | activity (spider mites killed) [3]: 100% | activity (caterpillars killed) [4]: 100%

Cc1ccc(N=C2C(=CSc3ccc(F)cc3)CCc3sc(Cl)cc32)cc1 [Example 1-66]
activity (beetle larvae killed) [2]: 100% | activity (caterpillars killed) [4]: 100%

Cc1ccc(N=C2C(=CSc3ccc(F)cc3)C(C)Oc3ccc(F)cc32)cc1 (stereo not shown) [Example 1-25]
activity (caterpillars killed) [4]: 100%

CC(C)c1ccc(N=C2C(=CSc3ccc(F)cc3)CCc3ccccc32)cc1 [Example 1-42]
activity (spider mites killed) [3]: 80%

Cc1ccc(N=C2C(=CSc3ccc(F)cc3)CCc3c2ccc2ccccc32)cc1F [Example 1-92]
activity (beetle larvae killed) [2]: 100% | activity (spider mites killed) [3]: 100% | activity (caterpillars killed) [4]: 100%

Cc1cc(C)cc(N=C2C(=CSc3ccc(F)cc3)C(C)c3cc(C)ccc32)c1 (mixture of isomers) [Example 1-72]
activity (caterpillars killed) [4]: 100%

Cc1ccc(N=C2CCC(OC(C)C)=CC2=CSc2ccc(F)cc2)cc1 (mixture of isomers) [Example 1-99]
activity (spider mites killed) [3]: 100%

Cc1ccc(N=C2C(=CSc3ccc(F)cc3)CCc3ccccc32)cc1F [Example 1-89]
activity (beetle larvae killed) [2]: 100% | knock-down activity [1]: 100% | activity (spider mites killed) [3]: 100% | activity (caterpillars killed) [4]: 100%

Cc1ccc(N=C2C(Br)=CC(C)(C)CC2=CSc2ccc(F)cc2)cc1 [Example 1-49]
activity (aphids killed) [5]: 90% | activity (caterpillars killed) [4]: 100%

Cc1ccc2c(c1)C(C)C(=CSc1ccc(F)cc1)C2=Nc1ccc(C)c(C)c1 (mixture of isomers) [Example 1-71]
activity (beetle larvae killed) [2]: 100% | knock-down activity [1]: 100% | activity (aphids killed) [5]: 90% | activity (spider mites killed) [3]: 100% | activity (caterpillars killed) [4]: 100%

Reference: patent publication US9055743B2, “Alpha, beta-unsaturated imines” (BAYER INTELLECTUAL PROPERTY GMBH, priority 2010, dated 2015)
